What all share (type): cell-based
One assay deals with Mino. Briefly: Cell Titer Glo viability assay, Mino. As to conditions: Homo sapiens; Mino, MCL; single agent; 72 hours; read-out: Inhibition of Viability, EC50. As to the method:
(§1) All procedures were performed at Gilead Sciences, Inc. in Branford, The compound of formula (I), cyclophosphamide, doxorubicin and vincristine sulfate were dissolved in DMSO to prepare stock solutions that were serially diluted three-fold in DMSO in a 96 well plate format at 1000× so the final starting assay concentrations tested would be 10 μM, 200 μM, 10 μM, and 1 μM respectively, for each compound. Compound plates were diluted 1:100 in RPMI without serum or additives creating a 10× stock. Cells were seeded into a 96-well plate at 10,000-20,000 cells per well in 100 μl of growth media appropriate to the cell line supplemented with 100 U/L penicillin-streptomycin. OCI-Ly3, OCI-Ly4 and OCI-Ly7 were grown in Iscove's+20% FBS, OCI-Ly19 was grown in alphaMEM+20% FBS, and all other cell lines were grown in RPMI+10% FBS. To each well, 11 μl of 10× compound was added in a final concentration of 0.1% DMSO and cells were incubated at 37° C. in 5% CO2 for 72 hours. Cell viability was assessed with Cell Titer Glo (Promega, Madison, Wis.) following the manufacturer's protocol on an Envision plate reader (Perkin Elmer, Waltham, Mass.). EC50 values were determined using a four parameter variable slope model with GraphPad Prism 6.0 software. All EC50 values represent mean values of from duplicate dose response curves.

For the next assay, the system named is OCI-LY19. Description: Cell Titer Glo viability assay, OCI-LY19. As to conditions: Homo sapiens; OCI-LY19, DLBCL; single agent; 72 hours; read-out: Inhibition of Viability, EC50. As to the method: as §1
In a further assay the test system is WSU-FSCCL. Briefly: Cell Titer Glo viability assay, WSU-FSCCL. As to conditions: WSU-FSCCL, FL; single agent; 72 hours; read-out: Inhibition of Viability, EC50. As to the method:
as §1
Background: Cellular ATP, detected with luciferase, serves as a proxy for viable cell number.

The test system of a further assay is OCI-LY3. Briefly: Cell Titer Glo viability assay, OCI-LY3. The note with it: Homo sapiens; OCI-LY3, DLBCL; single agent; 72 hours; read-out: Inhibition of Viability, EC50. As to the method:
as §1

The test system of another assay is WSU-NHL. Briefly: Cell Titer Glo viability assay, WSU-NHL. The note with it: Homo sapiens, FL, single agent, 72 hours, read-out: Inhibition of Viability, EC50. As to the method: as §1
A further assay has as its system SU-DHL-6. Description: Cell Titer Glo viability assay, SU-DHL-6. The note with it: Homo sapiens; SU-DHL-6, DLBCL; single agent; 72 hours; read-out: Inhibition of Viability, EC50. As to the method:
as §1

The test system of the next assay is Karpas 422. Description: Cell Titer Glo viability assay, Karpas 422. As to conditions: Homo sapiens; Karpas 422, DLBCL; single agent; 72 hours; read-out: Inhibition of Viability, EC50. As to the method: as §1
Another assay has as its system OPM-2. Description: Cell Titer Glo viability assay, OPM-2. The note with it: Homo sapiens; OPM-2, MM; single agent; 72 hours; read-out: Inhibition of Viability, EC50. As to the method: as §1
Another assay relates to Pfeiffer. Description: Cell Titer Glo viability assay, Pfeiffer. The note with it: Homo sapiens, DLBCL, single agent, 72 hours, read-out: Inhibition of Viability, EC50. As to the method:
as §1

The next assay has as its system SU-DHL-10. Briefly: Cell Titer Glo viability assay, SU-DHL-10. The note with it: Homo sapiens, SU-DHL10; SU-DHL-10, DLBCL; single agent; 72 hours; read-out: Inhibition of Viability, EC50. As to the method:
as §1

The next assay relates to OCI-LY4. Description: Cell Titer Glo viability assay, OCI-LY4. The note with it: OCI-LY4, DLBCL; single agent; 72 hours; read-out: Inhibition of Viability, EC50. As to the method:
as §1

In a further assay the test system is KMS-11. Briefly: Cell Titer Glo viability assay, KMS-11. The note with it: Homo sapiens; KMS-11, MM; single agent; 72 hours; read-out: Inhibition of Viability, EC50. As to the method: as §1
The test system of another assay is OCI-LY7. Description: Cell Titer Glo viability assay, OCI-LY7. As to conditions: Homo sapiens; OCI-LY7, DLBCL; single agent; 72 hours; read-out: Inhibition of Viability, EC50. As to the method:
as §1

The test system of a further assay is SU-DHL-2. Briefly: Cell Titer Glo viability assay, SU-DHL-2. The note with it: Homo sapiens; SU-DHL-2, DLBCL; single agent; 72 hours; read-out: Inhibition of Viability, EC50. As to the method:
as §1

A value given as a limit tells only on which side of the number the result lay.

As for `CC[C@]1(O)C[C@H]2CN(CCc3c([nH]c4ccccc34)[C@@](C(=O)OC)(c3cc4c(cc3OC)N(C=O)[C@H]3[C@@](O)(C(=O)OC)[C@H](OC(C)=O)[C@]5(CC)C=CCN6CC[C@]43[C@@H]65)C2)C1` [Vincristine, vincristine], the EC50 (usually the concentration needed to bring the measured effect to its halfway point) in the assay with Mino was 0.042 µM; with OCI-LY19, 0.0012 µM; with WSU-FSCCL, 0.058 µM; with OCI-LY3, 0.012 µM; in the assay on WSU-NHL it was 0.039 µM; in the assay on SU-DHL-6, 0.012 µM. In addition, the EC50 in the assay on Karpas 422 is 0.062 µM; in the assay on OPM-2, 0.097 µM; in the assay with Pfeiffer it was 0.004 µM; in the assay with SU-DHL-10, 0.045 µM; in the assay with OCI-LY4 it was < 0.001 µM; in the assay with KMS-11, 0.103 µM. The EC50 turned out to be 0.0046 µM in the assay on OCI-LY7 and 0.065 µM in the assay on SU-DHL-2.
Take `c1cn2cc(-c3ccc4cn[nH]c4c3)nc(Nc3ccc(N4CCOCC4)cc3)c2n1` [Compound of Formula I, 6-(1H-indazol-6-yl)-N-(4-morpholinophenyl)imidazo[1,2-a]pyrazin-8-amine]: the EC50 in the assay on Mino, in the assay with OCI-LY19, in the assay on WSU-FSCCL, in the assay on OCI-LY3, in the assay with WSU-NHL and in the assay with SU-DHL-6 was > 3 µM each time. In addition, the concentration for a half-maximal effect (EC50) in the assay on Karpas 422, in the assay on OPM-2, with Pfeiffer, with SU-DHL-10, with OCI-LY4 and with KMS-11 was > 3 µM each time. Besides, the EC50 in the assay on OCI-LY7 and in the assay on SU-DHL-2 was > 3 µM throughout.

Values taken from patent publication US10080756B2, “Combination methods for treating cancers” (Gilead Sciences, Inc., priority 2014, dated 2018).
